Measurements taken from US20080306076A1, “MODULATION OF CHEMOSENSORY RECEPTORS AND LIGANDS ASSOCIATED THEREWITH” (SENOMYX, INC., priority 2007, published 2008).
Residue numbers refer to the chain shown, from its start.

Experiments:
[1] = target: T1, hT1R1 R277A (Homo sapiens, UniProt Q7RTX1, R277A); experiment: Mutagenesis study, hT1R1 mutant R277A; type: cell-based; conditions: R277 mutation
T1 construct: expressed in transfected cells; host or cells: HEK293, transient transfection
T1 sequence (Q7RTX1 21-841 R277A): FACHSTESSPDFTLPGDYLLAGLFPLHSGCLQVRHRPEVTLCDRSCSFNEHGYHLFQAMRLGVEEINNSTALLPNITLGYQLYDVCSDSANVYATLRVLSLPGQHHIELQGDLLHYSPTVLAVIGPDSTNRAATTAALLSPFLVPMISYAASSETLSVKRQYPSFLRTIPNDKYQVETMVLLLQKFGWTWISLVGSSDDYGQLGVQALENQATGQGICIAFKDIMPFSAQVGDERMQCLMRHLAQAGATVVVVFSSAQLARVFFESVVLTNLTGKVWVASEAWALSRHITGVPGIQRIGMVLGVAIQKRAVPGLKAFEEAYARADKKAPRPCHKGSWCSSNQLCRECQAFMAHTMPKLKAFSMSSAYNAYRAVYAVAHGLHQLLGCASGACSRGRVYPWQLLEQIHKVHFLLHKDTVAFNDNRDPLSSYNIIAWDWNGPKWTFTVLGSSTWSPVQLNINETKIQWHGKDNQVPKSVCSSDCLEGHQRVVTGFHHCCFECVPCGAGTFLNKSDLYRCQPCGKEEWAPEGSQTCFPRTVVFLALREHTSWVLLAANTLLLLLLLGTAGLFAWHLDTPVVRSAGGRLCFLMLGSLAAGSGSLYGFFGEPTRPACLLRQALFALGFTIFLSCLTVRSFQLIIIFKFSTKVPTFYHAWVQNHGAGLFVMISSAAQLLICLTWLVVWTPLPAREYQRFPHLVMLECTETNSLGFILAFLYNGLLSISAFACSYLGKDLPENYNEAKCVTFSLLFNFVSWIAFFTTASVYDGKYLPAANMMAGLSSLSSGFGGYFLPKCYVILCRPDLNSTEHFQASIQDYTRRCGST
T1 sequence (Q923K1 21-858 partner): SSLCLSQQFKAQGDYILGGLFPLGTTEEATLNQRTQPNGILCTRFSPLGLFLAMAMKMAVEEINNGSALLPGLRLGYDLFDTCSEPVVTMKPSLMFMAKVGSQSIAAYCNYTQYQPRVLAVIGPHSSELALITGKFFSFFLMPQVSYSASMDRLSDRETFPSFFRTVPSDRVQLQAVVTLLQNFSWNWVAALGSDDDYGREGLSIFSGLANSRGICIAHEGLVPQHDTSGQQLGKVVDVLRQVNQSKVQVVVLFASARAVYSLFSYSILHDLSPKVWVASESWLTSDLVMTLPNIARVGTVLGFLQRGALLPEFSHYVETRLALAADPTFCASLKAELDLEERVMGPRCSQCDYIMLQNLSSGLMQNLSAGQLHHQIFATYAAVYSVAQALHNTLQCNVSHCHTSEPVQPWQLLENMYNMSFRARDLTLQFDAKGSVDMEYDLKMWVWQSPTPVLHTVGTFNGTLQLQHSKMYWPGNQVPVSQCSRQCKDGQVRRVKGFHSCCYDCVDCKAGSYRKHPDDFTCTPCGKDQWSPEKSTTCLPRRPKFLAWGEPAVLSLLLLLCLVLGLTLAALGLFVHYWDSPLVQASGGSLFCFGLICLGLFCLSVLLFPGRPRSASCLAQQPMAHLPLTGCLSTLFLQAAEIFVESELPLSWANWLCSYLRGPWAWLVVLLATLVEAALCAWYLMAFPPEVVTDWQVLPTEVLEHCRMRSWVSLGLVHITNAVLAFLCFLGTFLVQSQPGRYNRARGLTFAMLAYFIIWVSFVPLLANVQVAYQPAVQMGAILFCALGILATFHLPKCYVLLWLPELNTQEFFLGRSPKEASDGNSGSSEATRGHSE
Source text: (§1) In order to further define the interaction sites of umami stimuli, we performed site-directed mutagenesis on human T1R1 VFT. The mutagenesis was done using the routine PCR-based method. […] were transiently transfected into HEK293 cell together with the rat T1R3 wild type cDNA, and the transfected cells were characterized using an automated FLIPR machine or a calcium imaging system as described in our previous patent applications.

[2] = target: T2, hT1R1 D192A (Homo sapiens, UniProt Q7RTX1, D192A); experiment: Mutagenesis study, hT1R1 mutant D192A; type: cell-based; conditions: D192 mutant, FIG. 11
T2 construct: expressed in transfected cells; host or cells: HEK293, transient transfection
T2 sequence (Q7RTX1 21-841 D192A): T1 sequence (Q7RTX1 21-841 R277A) with D172A, A257R
T2 sequence (Q923K1 21-858 partner): T1 sequence (Q923K1 21-858 partner)
Source text: as §1

Structure (SMILES) | enhancement activity of GMP [1] | activity against L-Glu [2]
Nc1nc2c(ncn2[C@@H]2O[C@H](COP(=O)(O)O)[C@@H](O)[C@H]2O)c(=O)[nH]1 [GMP, guanosine-5′-monophosphate] | similarly affected | 
N[C@@H](CCC(=O)O)C(=O)O [L-Glu, L-glutamate] |  | significant reduced activity
